In article PMC7614683, “A small molecule PI3Kα activator for cardioprotection and neuroregeneration” (Nature, 2023):

Tests used:
[1] = test system: 133 protein kinases and 7 lipid kinases; assay: SelectScreen kinase profiling, whole panel; assay type: biochemical; conditions: 1 μM of 1938
Procedure: 133 protein kinases and 7 lipid kinases were counterscreened, with 1938 used at 1 μM, using the Adapta, Lantha and Z-LYTE assays (SelectScreen Kinase Profiling Service; Thermofisher – experimental details of these assays can be found here: https://www.thermofisher.com/uk/en/home/industrial/pharma-biopharma/drug-discovery-development/target-and-lead-identification-and-validation/kinasebiology/kinase-activity-assays.html. The tree represention in KinMap[59] generated courtesy of Cell Signaling Technology, Inc. (www.cellsignal.com). mTORC1 (mTOR/RAPTOR/LST8) protein complex and ATM kinase and substrates were produced as previously described[57],[60]. Screening of 1938 was conducted using SuperSep Phos-Tag 50 μmol/l 100 x 100 x 6.6 mm 17-well (192-18001/199-18011) gels. For ATM assays, 100 nM ATM was incubated for 30 min at 30°C with 5 μM GST-p53 and 1 mM ATP, in the absence or presence of 200 μM 1938 in ATM Kinase Buffer (50 mM HEPES pH 7.5, 100 mM NaCl, 10% glycerol, 2 mM […], 5 mM MgCl2). As a positive control for ATM activation, the same reaction was carried out with 100 nM ATM/5 μM GST-p53/1 mM ATP in the presence of 100 nM Mre11-Rad50-Nbs1 (MRN) complex, a known activator of ATM[61]. […] Gels were then stained using InstantBlue™ Coomassie, and quantified using BioRad Image Lab Software. […]

PI3Kα-KO MEFs = assay: Mass spectrometry-based phosphoproteomics, PI3Kα-KO MEFs; assay type: cell-based, mouse
Procedure: PI3Kα-WT and PI3Kα-KO MEFs, grown in 15 cm dishes, were serum-starved overnight in DMEM with 1% penicillin-streptomycin and stimulated by the addition of 0.05% DMSO, 5 μM 1938 in final 0.05% DMSO or 100 nM insulin (Sigma #I5016) for 15 min or 4 h. Cells were lysed in 500 μl urea lysis buffer [50 mM triethylammonium bicarbonate, 8 M urea, cOmplete™ EDTA-free protease inhibitor cocktail (1:50 dilution) (Roche #11873580001), 1 PhosSTOP tablet (Roche #4906845001) per 10 ml of lysis buffer, 1 mM sodium orthovanadate] and lysates sonicated until clear for ~10 min with cooling breaks on ice. Protein concentration was measured using a BCA protein assay (Pierce #23227). 300 μg of protein was reduced with 5 mM Tris(2-carboxyethyl)phosphine hydrochloride (Sigma #C4706) at 37°C for 20 min and alkylated using 10 mM 2-chloroacetamide (Sigma #22790) for 20 min at room temperature in the dark. Proteins were digested with LysC (#129-02541; FUJIFILM Wako Chemicals, Osaka, Japan) for 3.5 h at 30°C. Samples were then diluted with 50 mM triethylammonium bicarbonate (Sigma #T7408) to reduce the urea concentration to 1.5 M, followed by an overnight peptide digestion with trypsin (Promega #V5113) at 37°C. Digest reactions were quenched by the addition of 10% trifluoroacetic acid (EMD Millipore #302031-M) to a final pH of 2.0. Sample desalting was performed using 35-350 μg C18 columns (HMM S18V; The Nest Group, Inc., Southborough, MA, USA) according to the manufacturer’ specifications. TiO2 (Hichrome Titansphere TiO2, 10 μm capacity, 100 mg, GL Sciences #5020-75010) was used for phosphoenrichment. Following peptide loading onto TiO2, the beads were sequentially washed with 1 M glycolic acid (Sigma #124737)/80% acetonitrile/5% trifluoroacetic acid, followed by 80% acetonitrile/0.2% trifluoroacetic acid and 20% acetonitrile before elution with 5% ammonium hydroxide. Enriched samples were desalted using 7-70 μg C18 columns (HUM S18V; The Nest Group, Inc., Southborough, MA, USA) according to the manufacturer’s specifications. Dried phosphopeptide samples were stored at -80°C and resuspended in 10% formic acid immediately prior to analysis. nLC-MS/MS was performed on a Q-Exactive Orbitrap Plus interfaced to a NANOSPRAY FLEX ion source and coupled to an Easy-nLC 1000 (Thermo Scientific). Fifty percent of each sample was analysed as 10 μl injections. Peptides were separated on a 27 cm fused silica emitter, 75 μm diameter, packed in-house with Reprosil-Pur 200 C18-AQ, 2.4 μm resin (Dr. Maisch, Ammerbuch-Entringen, Germany) using a linear gradient from 5% to 30% acetonitrile/0.1% formic acid over 180 min, at a flow rate of 250 nl/min. Peptides were ionised by electrospray ionisation using 1.9 kV applied immediately prior to the analytical column via a microtee built into the nanospray source with the ion transfer tube heated to 320°C and the S-lens set to 60%. Precursor ions were measured in a data-dependent mode in the orbitrap analyser at a resolution of 70,000 and a target value of 3e6 ions. The ten most intense ions from each MS1 scan were isolated, fragmented in the HCD cell, and measured in the Orbitrap at a resolution of 17,500.
Raw data were analysed with MaxQuant[72] (version 1.5.5.1) where they were searched against the mouse UniProt database (http://www.uniprot.org/, downloaded 04/12/2018) using default settings. Carbamidomethylation of cysteines was set as fixed modification, and oxidation of methionines, acetylation at protein N-termini, phosphorylation (on S, T or Y) were set as variable modifications. Enzyme specificity was set to trypsin with maximally 2 missed cleavages allowed. To ensure high confidence identifications, peptide-spectral matches, peptides, and proteins were filtered at a less than 1% false discovery rate (FDR). Label-free quantification in MaxQuant was used with a LFQ minimum ratio count of 2, Fast LFQ selected and the ‘skip normalisation’ option selected. […]

In the case of CCN1CCN(c2ccc(Nc3cc(Nc4cccc5c4N(C(C)=O)CC5)ccn3)cc2)CC1 [Compound 1938], the “effect on PI3Kβ, PI3Kγ, PI3Kδ, PI3K-C2α, Vps34, PI4Kβ, mTOR and DNA-PK” value [1] is reported as “did not affect the activity”, the “inhibition of 13 protein kinases of the panel” value [1] is reported as 25-50% and the “signalling impact (phosphoproteomics)” value (PI3Kα-KO MEFs; PI3Kα-KO MEFs, 1938 5 μM) is reported as “little signalling impact”. For the same compound, the “log2FC, PI3Ka KO 15’ 1938 vs PI3Ka KO DMSO” value (PI3Kα-KO MEFs; phosphosite Cask_S544) was -0.1046, the “log2FC, PI3Ka KO 4 h 1938 vs PI3Ka KO DMSO” value (PI3Kα-KO MEFs; phosphosite Cask_S544) was “NegInf” and the “log2FC, PI3Ka KO 15’ 1938 vs PI3Ka KO DMSO” value (PI3Kα-KO MEFs; phosphosite Cask_S545) was 0.1395. The “log2FC, PI3Ka KO 4 h 1938 vs PI3Ka KO DMSO” value (PI3Kα-KO MEFs; phosphosite Cask_S545) was 0.1333, the “log2FC, PI3Ka KO 15’ 1938 vs PI3Ka KO DMSO” value (PI3Kα-KO MEFs; phosphosite Gm42715_S1683) was “Inf” and the “log2FC, PI3Ka KO 4 h 1938 vs PI3Ka KO DMSO” value (PI3Kα-KO MEFs; phosphosite Gm42715_S1683) was “Inf”.
